Data from patent US10551389B2, “Target binding molecules identified by kinetic target-guided synthesis” (UNIVERSITY OF SOUTH FLORIDA, priority 2013, dated 2020).

How the values were obtained:
Mcl-1 = Mcl-1 (Homo sapiens, UniProt Q07820); assay: Inhibition of Mcl-1 (disruption of Mcl-1/Bim interaction); assay type: binding; settings: for % Inhibition (25 μM) Mcl-1 / inhibition at 25 µM: compound at 25 μM; for % Inhibition (50 μM) Mcl-1 / inhibition at 50 µM: compound at 50 μM
Protocol: (§1) In a subsequent study, a structurally diverse library of forty five thio acids and thirty eight sulfonyl azides (identified above) was screened in parallel against Mcl-1 and Bcl-XL using the above mentioned approach. Several potential hit combinations were identified (Table 3). All of these kinetic TGS hit compounds were synthesized (identified above and in Table 3). All the reactions were performed at 20-30 mg scale. The 9-fluorenylmethyl thioester was placed in a 2.0 mL vial and 3.5% DBU/dry DMF solution was added (per 1 μmol of thioester, 4.7 μL, of 3.5% DBU/dry DMF solution was added) and the reaction was stirred for one minute. Then the sulfonylazide (1 eq to thioester) was added to the reaction mixture and immediately bubbling was observed. After the reaction was completed (approximately one minute, monitored by LC-MS) water (200 μL) was added and the pH was adjusted to 7.0 using 1M HCl solution. The reaction mixture was extracted with DCM until there is no product in the aqueous layer (checked by TLC or LC-MS). The product was purified by flash chromatography. Testing of these acylsulfonamides has shown that the hit compounds disrupt the Bcl-XL/Bim or Mcl-1/Bim interaction (Table 3).

Bcl-XL = Bcl-XL (Homo sapiens, UniProt Q07817); assay: Inhibition of Bcl-XL (disruption of Bcl-XL/Bim interaction); assay type: binding; settings: for inhibition at 50 µM / % Inhibition (50 μM) Bcl-XL: compound at 50 μM; for % Inhibition (25 μM) Bcl-XL / inhibition at 25 µM: compound at 25 μM
Bcl-XL, sequence (Q07817 whole entry, species assumed): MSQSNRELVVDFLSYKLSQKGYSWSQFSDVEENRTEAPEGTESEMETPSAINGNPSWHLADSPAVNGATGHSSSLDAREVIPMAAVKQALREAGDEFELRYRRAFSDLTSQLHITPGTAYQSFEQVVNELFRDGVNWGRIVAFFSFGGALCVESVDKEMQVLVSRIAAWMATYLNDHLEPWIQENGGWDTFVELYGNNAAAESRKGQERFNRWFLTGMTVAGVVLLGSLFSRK
Protocol: as §1

Mcl-1, sequence (Q07820 whole entry, species assumed): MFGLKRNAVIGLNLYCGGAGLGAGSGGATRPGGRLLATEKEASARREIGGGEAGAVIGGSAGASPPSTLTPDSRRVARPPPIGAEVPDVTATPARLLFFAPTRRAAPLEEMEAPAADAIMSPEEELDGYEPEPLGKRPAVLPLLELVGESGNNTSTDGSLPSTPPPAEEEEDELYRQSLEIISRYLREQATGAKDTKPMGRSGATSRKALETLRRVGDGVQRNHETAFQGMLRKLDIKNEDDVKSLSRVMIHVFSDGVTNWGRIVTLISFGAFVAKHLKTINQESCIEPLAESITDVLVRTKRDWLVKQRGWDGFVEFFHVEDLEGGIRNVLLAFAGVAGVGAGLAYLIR

| SMILES | % Inhibition (25 μM) Mcl-1 (Mcl-1) [%] | % Inhibition (50 μM) Mcl-1 (Mcl-1) [%] | also measured |
| --- | --- | --- | --- |
| [N-]=[N+]=NS(=O)(=O)c1ccc(CN(CCSc2ccccc2)Cc2ccc(S(=O)(=O)NC(=O)c3ccccc3)cc2)cc1 [SZ9TA1] | – | – | IC50 (Mcl-1): 19.8 µM; inhibition at 50 µM (Bcl-XL): 79.5% |
| Cn1cc(C(=O)C2CCCCC2)c2cc(C(=O)NS(=O)(=O)c3ccc(CN(CCSc4ccccc4)Cc4ccc(S(N)(=O)=O)cc4)cc3)ccc21 [SZ10TA40] | 37.2 | 35.2 | % Inhibition (25 μM) Bcl-XL (Bcl-XL): <2.0%; % Inhibition (50 μM) Bcl-XL (Bcl-XL): <2.0% |
| COc1cccc(CN(CCSc2ccccc2)Cc2ccc(S(=O)(=O)NC(=O)c3ccc(-c4ccccn4)cc3)cc2)c1 [SZ17TA25] | 64.9 | 93.6 | % Inhibition (25 μM) Bcl-XL (Bcl-XL): 38.6%; % Inhibition (50 μM) Bcl-XL (Bcl-XL): 54.5% |
| COc1cc2c(cc1OC)C(c1ccccc1)N(Cc1ccc(S(=O)(=O)NC(=O)c3ccc(C(c4c[nH]c5ccccc45)c4c[nH]c5ccccc45)cc3)cc1)CC2 (stereo not shown) [SZ8TA31] | <2.0 | <2.0 | % Inhibition (25 μM) Bcl-XL (Bcl-XL): <2.0%; % Inhibition (50 μM) Bcl-XL (Bcl-XL): <2.0% |
| NS(=O)(=O)c1ccc(CN(CCSc2ccccc2)Cc2ccc(S(=O)(=O)NC(=O)c3ccc(-c4ccccn4)cc3)cc2)cc1 [SZ10TA25] | 43.9 | 93.6 | % Inhibition (25 μM) Bcl-XL (Bcl-XL): 33.9%; % Inhibition (50 μM) Bcl-XL (Bcl-XL): 53.4% |
| O=C(CC1Sc2ccccc2NC1=O)NS(=O)(=O)c1ccc(CN(CCSc2ccccc2)Cc2c(F)cccc2Cl)cc1 (stereo not shown) [SZ15TA34] | 47.4 | 82.8 | % Inhibition (25 μM) Bcl-XL (Bcl-XL): 19.6%; % Inhibition (50 μM) Bcl-XL (Bcl-XL): 28.6% |
| NS(=O)(=O)c1ccc(CN(CCSc2ccccc2)Cc2ccc(S(=O)(=O)NC(=O)c3ccc4oc(-c5ccccc5)cc4c3)cc2)cc1 [SZ10TA41] | 2.8 | 12.4 | – |
| O=C(NS(=O)(=O)c1ccc(CN(CCSc2ccccc2)Cc2c(F)cccc2Cl)cc1)c1ccc(-c2ccccn2)cc1 [SZ15TA25] | – | – | IC50 (Mcl-1): 15.3 µM; inhibition at 25 µM (Mcl-1): 77.2%; inhibition at 25 µM (Bcl-XL): 43%; inhibition at 50 µM (Bcl-XL): 57.8% |
| [N-]=[N+]=NS(=O)(=O)c1ccc(CN(CCSc2ccccc2)Cc2ccc(S(=O)(=O)NC(=O)CCCN3C(=O)C(c4ccc(F)cc4F)=C(c4ccc(F)cc4F)C3=O)cc2)cc1 [SZ9TA20] | – | – | inhibition at 25 µM (Mcl-1): 15.7%; inhibition at 50 µM (Mcl-1): 6.9%; inhibition at 25 µM (Bcl-XL): < 2%; inhibition at 50 µM (Bcl-XL): < 2% |
| Cn1cc(C(=O)C2CCCCC2)c2cc(C(=O)NS(=O)(=O)c3ccc(CN(CCSc4ccccc4)Cc4ccc5c(c4)OCO5)cc3)ccc21 [SZ31TA40] | <2.0 | <2.0 | % Inhibition (25 μM) Bcl-XL (Bcl-XL): <2.0%; % Inhibition (50 μM) Bcl-XL (Bcl-XL): <2.0% |
| CC1(C)CCN(c2ccc(C(=O)NS(=O)(=O)c3ccc4ccc(S(=O)(=O)NCCSc5ccccc5)cc4c3)cc2)CC1 [SZ7TA2] | – | – | IC50 (Mcl-1): 16.9 µM; inhibition at 25 µM (Mcl-1): 49.6%; inhibition at 50 µM (Mcl-1): 93.9%; IC50 (Bcl-XL): 28.6 µM; inhibition at 25 µM (Bcl-XL): 15.5%; inhibition at 50 µM (Bcl-XL): 73% |
| O=C(Cn1c2ccccc2c2ccccc21)NS(=O)(=O)c1ccc(CN(CCSc2ccccc2)Cc2ccc3c(c2)OCO3)cc1 [SZ31TA15] | – | – | IC50 (Mcl-1): 14 µM; inhibition at 25 µM (Mcl-1): 82%; inhibition at 25 µM (Bcl-XL): 18.5%; inhibition at 50 µM (Bcl-XL): 21.4% |
| O=C(NS(=O)(=O)c1ccc(-c2ccc(Oc3ccccc3)cc2)cc1)c1ccc(CCc2ccccn2)cc1 [SZ35TA17] | 18.8 | 89.2 | – |
| COc1cccc(CN(CCSc2ccccc2)Cc2ccc(S(=O)(=O)NC(=O)c3ccc(OC(F)(F)F)cc3)cc2)c1 [SZ17TA8] | – | – | IC50 (Mcl-1): 8.4 µM; inhibition at 25 µM (Mcl-1): 60.5%; inhibition at 50 µM (Mcl-1): 100%; inhibition at 25 µM (Bcl-XL): 4.1%; inhibition at 50 µM (Bcl-XL): < 2% |
| O=C(NS(=O)(=O)c1ccc(CNc2cccc([N+](=O)[O-])c2)cc1)c1ccc(CN2C(=O)C(c3ccc(F)cc3F)=C(c3ccc(F)cc3F)C2=O)cc1 [SZ12TA42] | – | – | IC50 (Mcl-1): 13.6 µM; inhibition at 25 µM (Mcl-1): 77.3%; inhibition at 25 µM (Bcl-XL): 14%; inhibition at 50 µM (Bcl-XL): 22.6% |
| Cc1nc(-c2ccccc2)sc1C(=O)NS(=O)(=O)c1ccc(-c2ccc(Oc3ccccc3)cc2)cc1 [SZ35TA3] | 18.8 | 87.2 | – |
| COc1cccc(CN(CCSc2ccccc2)Cc2ccc(S(=O)(=O)NC(=O)c3ccc4c(c3)c(C(=O)c3cccs3)cn4C)cc2)c1 [SZ17TA45] | 62.7 | 34.5 | % Inhibition (25 μM) Bcl-XL (Bcl-XL): 6.8%; % Inhibition (50 μM) Bcl-XL (Bcl-XL): <2.0% |

| SMILES | % Inhibition (25 μM) Mcl-1 (Mcl-1) [%] | % Inhibition (50 μM) Mcl-1 (Mcl-1) [%] | also measured |
| --- | --- | --- | --- |
| O=C(NS(=O)(=O)c1ccc(NCCSc2ccccc2)c([N+](=O)[O-])c1)c1ccc(CCc2ccccn2)cc1 [SZATA17] | 30.8 | 44.7 | IC50 (Mcl-1): 60.6 µM; IC50 (Bcl-XL): 2.08 µM; % Inhibition (25 μM) Bcl-XL (Bcl-XL): 83.7%; % Inhibition (50 μM) Bcl-XL (Bcl-XL): 90.6% |
| CC1(C)CCN(c2ccc(C(=O)NS(=O)(=O)CCN3CCc4ccccc4C3)cc2)CC1 [SZ23TA2] | 4.5 | <2.0 | – |
| CC1(C)CCN(c2ccc(C(=O)NS(=O)(=O)c3ccc(CNc4cccc([N+](=O)[O-])c4)cc3)cc2)CC1 [SZ12TA2] | 7.1 | 54.1 | – |
| O=C(NS(=O)(=O)CCN1CCC(Cc2ccccc2)CC1)c1ccc2c(ccn2Cc2ccc(C(F)(F)F)cc2C(F)(F)F)c1 [SZ24TA30] | 18.1 | 11.4 | – |
| CCOc1ccc(-c2ccc3c(c2)c(C(=O)NS(=O)(=O)c2ccc(CNCCSc4ccccc4)cc2)cn3C)cc1F [SZ6TA23] | <2.0 | <2.0 | – |
| CCOc1ccc(-c2ccc3c(c2)c(C(=O)NS(=O)(=O)c2ccc(CNc4cccc([N+](=O)[O-])c4)cc2)cn3C)cc1F [SZ12TA23] | 6.1 | 21.5 | – |
| COc1ccccc1-c1ccc(C(=O)NS(=O)(=O)c2ccc(-c3ccc(C(F)(F)F)cc3)cc2)cc1 [SZ16TA21] | 26.0 | 80.9 | – |
| CCOc1ccc(-c2ccc3c(c2)c(C(=O)NS(=O)(=O)c2ccc(CN4CCN(c5ccccc5)CC4)cc2)cn3C)cc1F [SZ1TA23] | 18.7 | 21.5 | – |
| COc1ccc(Cc2ccc(C(=O)NS(=O)(=O)c3ccc(-c4ccc(Oc5ccccc5)cc4)cc3)cc2)c(OC)c1OC [SZ35TA24] | 72.3 | 76.4 | – |
| COc1ccccc1-c1ccc(C(=O)NS(=O)(=O)c2ccc(CN(CCSc3ccccc3)Cc3ccc(S(N)(=O)=O)cc3)cc2)cc1 [SZ10TA21] | 52.3 | 57.3 | – |
| CC(C)(C)c1ccc(-c2ccc(S(=O)(=O)NC(=O)c3ccc(-c4ccccn4)cc3)cc2)cc1 [SZ11TA25] | – | – | inhibition at 25 µM (Mcl-1): 20.1%; inhibition at 50 µM (Mcl-1): 65.8% |
| O=C(NS(=O)(=O)c1ccc(-c2ccc(Oc3ccccc3)cc2)cc1)c1cccc2ccccc12 [SZ35TA7] | 28.6 | 87.8 | – |
| COc1cc2c(cc1OC)C(c1ccccc1)N(Cc1ccc(S(=O)(=O)NC(=O)c3ccc(N4CCC(C)(C)CC4)cc3)cc1)CC2 (stereo not shown) [SZ8TA2] | 14.8 | 24.9 | – |
| COc1cc2c(cc1OC)C(c1ccccc1)N(Cc1ccc(S(=O)(=O)NC(=O)c3ccc(Cc4ccc(OC)c(OC)c4OC)cc3)cc1)CC2 (stereo not shown) [SZ8TA24] | 43.6 | 79.2 | – |
| O=C(NS(=O)(=O)c1ccc(CN(CCSc2ccccc2)Cc2c(F)cccc2Cl)cc1)c1cccc2ccccc12 [SZ15TA7] | – | – | IC50 (Mcl-1): 15.4 µM |
| COc1ccccc1-c1ccc(C(=O)NS(=O)(=O)c2ccc(NCCSc3ccccc3)c([N+](=O)[O-])c2)cc1 [SZ4TA21] | 44.7 | 80.6 | – |
| COc1cccc(CN(CCSc2ccccc2)Cc2ccc(S(=O)(=O)NC(=O)c3ccc(Cc4ccc(OC)c(OC)c4OC)cc3)cc2)c1 [SZ17TA24] | 65.1 | 74.1 | – |
